From patent US4948783A, “Anticariogenic or antiperidontitic method” (Kabushiki Kaisya Advance Kaihatsu kenkyujo, priority 1985, dated 1990)
Converted amounts (≈) assume the structure as drawn. Like-named read-outs stand apart in the source and are kept apart here.

Tests used:
S. mutans = assay: Antibacterial activity (MIC) against S. mutans; format: cell-based, Streptococcus mutans (isolated from a human oral cavity); conditions: Streptococcus mutans
Procedure: (§1) A sample of vitamin L2 (methylthioadenosine) (Sigma Chemical Company) having the chemical formula shown below was dissolved in water, [drawing 3] the pH was adjusted to 7, and sterilization was carried out by autoclaving at 121° C. for 15 min or by filtration with membrane filters, to form a sterile solution. This sample solution mentioned above was added into a sterile basal medium (refer to Table 1) together with sterile distilled water to adjust the concentration of the sample. To this medium, S. mutans causing dental caries, Actinomyces naeslundii and A. viscosus causing dental caries and periondontitis, and B. gingivalis and Fusobacterium nucleatum causing periodontitis, each bacterium being isolated from a human oral cavity, were repectively inoculated. After incubation at 37° C. for 24 hrs, the MIC (minimal growth-inhibitoryconcentration: μg/ml) against each bacterium was determined. As a control, a 0.85% NaCl solution was used instead of the sample solution of vitamin L2. Furthermore, the effect of vitamin L2 on intestinal bacteria such as S. faecium, S. faecalis, Bifidobacterium bifidum, Lactobacillus acidophilus, and L. fermentum, isolated from the feces of healthy humans, was also determined by the same procedures.

B. gingivalis = assay: Antibacterial activity (MIC) against B. gingivalis; format: cell-based, Bacteroides gingivalis (isolated from a human oral cavity); conditions: for MIC: Porphyromonas gingivalis
Procedure: as §1

A. naeslundii = assay: Antibacterial activity (MIC) against A. naeslundii; format: cell-based, Actinomyces naeslundii (isolated from a human oral cavity); conditions: Actinomyces naeslundii, Brain heart infusion broth, 37° C., 24 hrs, read-out: MIC (minimal growth-inhibitory concentration)
Procedure: as §1

A. viscosus = assay: Antibacterial activity (MIC) against A. viscosus; format: cell-based, A. viscosus (isolated from a human oral cavity); conditions: Actinomyces viscosus, Brain heart infusion broth, 37° C., 24 hrs, read-out: MIC (minimal growth-inhibitory concentration)
Procedure: as §1

F. nucleatum = assay: Antibacterial activity (MIC) against F. nucleatum; format: cell-based, Fusobacterium nucleatum (isolated from a human oral cavity); conditions: Fusobacterium nucleatum, GAM broth, 37° C., 24 hrs, read-out: MIC (minimal growth-inhibitory concentration)
Procedure: as §1

S. faecium = assay: Effect on intestinal bacteria (MIC), S. faecium; format: cell-based, S. faecium (isolated from the feces of healthy humans); conditions: Enterococcus faecium, Todd-Hewitt broth, 37° C., 24 hrs, read-out: MIC (minimal growth-inhibitory concentration)
Procedure: as §1

S. faecalis = assay: Effect on intestinal bacteria (MIC), S. faecalis; format: cell-based, S. faecalis (isolated from the feces of healthy humans); conditions: Enterococcus faecalis, Todd-Hewitt broth, 37° C., 24 hrs, read-out: MIC (minimal growth-inhibitory concentration)
Procedure: as §1

Bif. bifidum = assay: Effect on intestinal bacteria (MIC), Bif. bifidum; format: cell-based; conditions: Bifidobacterium bifidum, GAM broth, 37° C., 24 hrs, read-out: MIC (minimal growth-inhibitory concentration)
Procedure: as §1

L. acidophilus = assay: Effect on intestinal bacteria (MIC), L. acidophilus; format: cell-based; conditions: Lactobacillus acidophilus, Rogosa broth, 37° C., 24 hrs, read-out: MIC (minimal growth-inhibitory concentration)
Procedure: as §1

L. fermentum = assay: Effect on intestinal bacteria (MIC), L. fermentum; format: cell-based, L. fermentum (isolated from the feces of healthy humans); conditions: Limosilactobacillus fermentum, Rogosa broth, 37° C., 24 hrs, read-out: MIC (minimal growth-inhibitory concentration)
Procedure: as §1

[1] = 24 h, S. mutans, same procedures as in Example 1, read-out: MIC, S. mutans (Table 3)
[2] = 24 h, B. gingivalis, same procedures as in Example 1, read-out: MIC, B. gingivalis (Table 3)
[3] = 24 h, read-out: MIC, S. mutans (Table 3)

Nc1ncnc2c1ncn2[C@@H]1O[C@H](CCl)[C@@H](O)[C@H]1O [Material (1), 5'-deoxy-5'-chloroadenosine]
MIC (S. mutans; [1]): 250 µg/mL (≈ 875 µM)
MIC (B. gingivalis; [2]): 125 µg/mL (≈ 438 µM)

CNc1ncnc2c1ncn2[C@@H]1O[C@H](CO)[C@@H](O)[C@H]1O [Material (2), N-6 methyladenosine]
MIC (S. mutans; [1]): 1000 µg/mL (≈ 3560 µM)
MIC (B. gingivalis; [2]): 250 µg/mL (≈ 889 µM)

OC[C@H]1O[C@@H](n2cnc3c(NCc4ccccc4)ncnc32)[C@H](O)[C@@H]1O [Material (3), N-6 benzyladenosine]
MIC (S. mutans; [1]): 1000 µg/mL (≈ 2800 µM)
MIC (B. gingivalis; [2]): 250 µg/mL (≈ 700 µM)

Nc1nc(Cl)nc2c1ncn2[C@@H]1O[C@H](CO)[C@@H](O)[C@H]1O [Material (4), 2-chloroadenosine]
MIC (S. mutans; [1]): 1000 µg/mL (≈ 3310 µM)
MIC (B. gingivalis; [2]): 250 µg/mL (≈ 829 µM)

CC(C)CSC[C@H]1O[C@@H](n2cnc3c(N)ncnc32)[C@H](O)[C@@H]1O [Material (5), (5'-deoxy) isobutylthioadenosine]
MIC (S. mutans; [1]): 1500 µg/mL (≈ 4420 µM)
MIC (B. gingivalis; [2]): 250 µg/mL (≈ 737 µM)

Nc1ncnc2c1ncn2[C@@H]1O[C@H](CO)[C@@H](O)[C@H]1O [Material (6), adenosine]
MIC (S. mutans; [3]): 1000 µg/mL (≈ 3740 µM)
MIC, B. gingivalis (Table 3) (B. gingivalis; B. gingivalis, same procedures as in Example 1): No inhibition

Nc1ncnc2c1ncn2[C@@H]1O[C@H](CO)[C@@H](O)[C@@H]1O [Material (7), spongoadenosine]
MIC (S. mutans; [3]): 1500 µg/mL (≈ 5610 µM)
MIC (B. gingivalis; 24 h, read-out: MIC, B. gingivalis (Table 3)): 16 µg/mL (≈ 59.9 µM)

C[C@H]1O[C@@H](n2cnc3c(N)ncnc32)[C@H](O)[C@@H]1O [Material (8), 5'-deoxyadenosine]
MIC (S. mutans; [1]): 1000 µg/mL (≈ 3980 µM)
MIC (B. gingivalis; [2]): 125 µg/mL (≈ 498 µM)

CSC[C@H]1O[C@@H](n2cnc3c(N)ncnc32)[C@H](O)[C@@H]1O [vitamin L2, methylthioadenosine]
MIC (S. mutans; S. mutans, Todd-Hewitt broth, 37° C., 24 hrs, read-out: MIC (minimal growth-inhibitory concentration)): 63 µg/mL (≈ 212 µM)
MIC (A. naeslundii): 32 µg/mL (≈ 108 µM)
MIC (A. viscosus): 63 µg/mL (≈ 212 µM)
MIC (B. gingivalis; B. gingivalis, GAM broth, 37° C., 24 hrs, read-out: MIC (minimal growth-inhibitory concentration)): 125 µg/mL (≈ 420 µM)
MIC (F. nucleatum): 500 µg/mL (≈ 1680 µM)
MIC (S. faecium): > 1000 µg/mL
MIC (S. faecalis): > 1000 µg/mL
MIC (Bif. bifidum): > 1000 µg/mL
MIC (L. acidophilus): > 1000 µg/mL
MIC (L. fermentum): 1000 µg/mL (≈ 3360 µM)
